In patent US20240383886A1, “Protein Tyrosine Phosphatase Degraders and Methods of Use Thereof” (CALICO LIFE SCIENCES LLC, priority 2019, published 2024):

Tests used:
[1] = target: T1, PTPN2 (Homo sapiens, UniProt P17706); test: HiBiT-Degradation 293T.109 PTPN2 (Nano-Glo HiBiT Lytic Assay); type: cell-based; conditions: 293T.109 (HiBiT-PTPN2) cells, 24.0 hours
T1 construct: expressed in transfected cells; host or cells: 293T (293T.109 HiBiT-PTPN2 line; parental 293T WT from ATCC)
T1 sequence (P17706 1-415): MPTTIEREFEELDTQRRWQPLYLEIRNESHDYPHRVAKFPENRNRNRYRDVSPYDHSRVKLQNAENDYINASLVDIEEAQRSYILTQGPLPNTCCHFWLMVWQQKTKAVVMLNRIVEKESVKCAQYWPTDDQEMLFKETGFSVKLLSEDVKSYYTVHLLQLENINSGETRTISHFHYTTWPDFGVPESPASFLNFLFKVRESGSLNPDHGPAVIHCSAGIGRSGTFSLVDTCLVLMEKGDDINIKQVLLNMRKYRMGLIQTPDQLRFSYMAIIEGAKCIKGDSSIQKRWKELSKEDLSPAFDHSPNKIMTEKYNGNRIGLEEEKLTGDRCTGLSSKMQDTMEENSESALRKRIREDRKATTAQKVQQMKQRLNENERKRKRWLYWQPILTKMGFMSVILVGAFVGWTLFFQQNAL
Method in brief: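 293T cells ectopically expressing N-terminally HiBiT-tagged PTPN2 were seeded at 5000 cells/well. They were treated with an 11-point half-log titration from 10 μM, in duplicate, for 24 hours at 37° C., 5% CO2. Remaining tagged PTPN2 was quantified by lytic HiBiT luminescence against untreated and no-reagent controls.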

[2] = system: PTPN2; test: HiBiT-Degradation B16F10.4 PTPN2; type: cell-based; conditions: B16F10.4 cells, 24.0 hours

Row | SMILES | DC50 [1] [µM] | DC50 [2] [µM]
1 | O=C1CCC(N2C(=O)c3cccc(NCc4cccc(C(=O)Nc5ccc6c(F)c(N7CC(=O)NS7(=O)=O)c(O)cc6c5)c4)c3C2=O)C(=O)N1 (stereo not drawn) [Example 61] | 0.2 to 1 | ≥ 1
2 | Cn1c(=O)n(C2CCC(=O)NC2=O)c2ccc(C3CCN(CC(=O)N4CC(Nc5ccc6cc(O)c(N7CC(=O)NS7(=O)=O)c(F)c6c5)C4)CC3(F)F)cc21 (stereo not drawn) [Example 171, 3-(5-(1-(2-(3-((7-(1,1-dioxido-4-oxo-1,2,5-thiadiazolidin-2-yl)-8-fluoro-6-hydroxynaphthalen-2-yl)amino)azetidin-1-yl)-2-oxoethyl)-3,3-difluoropiperidin-4-yl)-3-methyl-2-oxo-2,3-dihydro-1H-benzo[d]imidazol-1-yl)piperidine-2,6-dione] | 0.05 to 0.2 | 0.05 to 0.2
3 | CC(C)n1c(=O)n(C2CCC(=O)NC2=O)c2ccc(C3CCN(CC(=O)Nc4ccc5c(F)c(N6CC(=O)NS6(=O)=O)c(O)cc5c4)CC3)cc21 (stereo not drawn) [Example 24, 2-[4-[1-(2,6-dioxo-3-piperidyl)-3-isopropyl-2-oxo-benzimidazol-5-yl]-1-piperidyl]-N-[5-fluoro-7-hydroxy-6-(1,1,4-trioxo-1,2,5-thiadiazolidin-2-yl)-2-naphthyl]acetamide] | 0.05 to 0.2 | 0.05 to 0.2
4 | O=C1CCC(N2C(=O)c3cccc(NCc4cn(C5CN(CC(=O)Nc6ccc7c(F)c(N8CC(=O)NS8(=O)=O)c(O)cc7c6)C5)nn4)c3C2=O)C(=O)N1 (stereo not drawn) [Example 58] | 0.2 to 1 | ≥ 1
5 | Cn1c(=O)n(C2CCC(=O)NC2=O)c2cccc(OC3CCN(CC(=O)NCCOc4ccc5cc(O)c(N6CC(=O)NS6(=O)=O)c(F)c5c4)CC3)c21 (stereo not drawn) [Example 9, 2-[4-[1-(2,6-dioxo-3-piperidyl)-3-methyl-2-oxo-benzimidazol-4-yl]oxy-1-piperidyl]-N-[2-[[8-fluoro-6-hydroxy-7-(1,1,4-trioxo-1,2,5-thiadiazolidin-2-yl)-2-naphthyl]oxy]ethyl]acetamide] | 0.05 to 0.2 | 0.2 to 1
6 | O=C(CN1CCC(n2cc(CNc3cccc4c3C(=O)N(C3CCC(=O)NC3=O)C4=O)nn2)CC1)NCCOc1ccc2cc(O)c(N3CC(=O)NS3(=O)=O)c(F)c2c1 (stereo not drawn) [Example 40] | 0.2 to 1 | ≥ 1
7 | O=C1CCC(N2C(=O)c3cccc(NCc4cn(CCC(=O)Nc5ccc6c(Cl)c(N7CC(=O)NS7(=O)=O)c(O)cc6c5)nn4)c3C2=O)C(=O)N1 (stereo not drawn) [Example 69] | ≥ 1 | ≥ 1
8 | O=C1CCC(N2C(=O)c3cccc(NCc4cn(CCC(=O)Nc5ccc6c(F)c(N7CC(=O)NS7(=O)=O)c(O)cc6c5)nn4)c3C2=O)C(=O)N1 (stereo not drawn) [Example 68] | 0.2 to 1 | ≥ 1
9 | O=C1CCC(N2Cc3c(NCc4cn(C5CN(C(=O)Nc6ccc7c(F)c(N8CC(=O)NS8(=O)=O)c(O)cc7c6)C5)nn4)cccc3C2=O)C(=O)N1 (stereo not drawn) [Example 57] | 0.2 to 1 | ≥ 1
10 | O=C1CCC(N2Cc3c(NCC(=O)N4CCC(C(=O)NCCOc5ccc6cc(O)c(N7CC(=O)NS7(=O)=O)c(F)c6c5)CC4)cccc3C2=O)C(=O)N1 (stereo not drawn) [Example 2, N-(2-((7-(1,1-dioxido-4-oxo-1,2,5-thiadiazolidin-2-yl)-8-fluoro-6-hydroxynaphthalen-2-yl)oxy)ethyl)-1-((2-(2,6-dioxopiperidin-3-yl)-1-oxoisoindolin-4-yl)glycyl)piperidine-4-carboxamide] | 0.2 to 1 | 0.2 to 1
11 | Cn1c(=O)n(C2CCC(=O)NC2=O)c2ccc(C3CCN(CC(=O)N4CC(Oc5ccc6cc(O)c(N7CC(=O)NS7(=O)=O)c(F)c6c5)C4)CC3(F)F)cc21 (stereo not drawn) [Example 80, 3-[5-[3,3-difluoro-1-[2-[3-[[8-fluoro-6-hydroxy-7-(1,1,4-trioxo-1,2,5-thiadiazolidin-2-yl)-2-naphthyl]oxy]azetidin-1-yl]-2-oxo-ethyl]-4-piperidyl]-3-methyl-2-oxo-benzimidazol-1-yl]piperidine-2,6-dione] | 0.01 to 0.05 | 0.05 to 0.2
12 | Cn1c(=O)n(C2CCC(=O)NC2=O)c2ccc(C3CCN(CCCCCOc4ccc5cc(O)c(N6CC(=O)NS6(=O)=O)c(F)c5c4)CC3)cc21 (stereo not drawn) [Example 95, 3-[5-[1-[5-[[8-fluoro-6-hydroxy-7-(1,1,4-trioxo-1,2,5-thiadiazolidin-2-yl)-2-naphthyl]oxy]pentyl]-4-piperidyl]-3-methyl-2-oxo-benzimidazol-1-yl]piperidine-2,6-dione] | 0.01 to 0.05 | 0.05 to 0.2
13 | Cn1c(=O)n(C2CCC(=O)NC2=O)c2ccc(C3CCN(CCN4CC[C@H](COc5ccc6cc(O)c(N7CC(=O)NS7(=O)=O)c(F)c6c5)C4)CC3)cc21 (stereo partly drawn) [Example 150, 3-[5-[1-[2-[(3S)-3-[[8-fluoro-6-hydroxy-7-(1,1,4-trioxo-1,2,5-thiadiazolidin-2-yl)-2-naphthyl]oxymethyl]pyrrolidin-1-yl]ethyl]-4-piperidyl]-3-methyl-2-oxo-benzimidazol-1-yl]piperidine-2,6-dione] | 0.05 to 0.2 | 0.05 to 0.2
14 | CN(c1ccc(C2CCN(CC(=O)Nc3ccc4c(F)c(N5CC(=O)NS5(=O)=O)c(O)cc4c3)CC2)cc1)C1CCC(=O)NC1=O (stereo not drawn) [Example 108, 2-[4-[4-[(2,6-dioxo-3-piperidyl)-methyl-amino]phenyl]-1-piperidyl]-N-[5-fluoro-7-hydroxy-6-(1,1,4-trioxo-1,2,5-thiadiazolidin-2-yl)-2-naphthyl]acetamide] | 0.2 to 1 | ≥ 1
15 | Cn1c(=O)n(C2CCC(=O)NC2=O)c2ccc(C3CCN(CC(=O)N4CC[C@@H](COc5ccc6cc(O)c(N7CC(=O)NS7(=O)=O)c(F)c6c5)C4)CC3)cc21 (stereo partly drawn) [Example 131, 3-[5-[1-[2-[(3R)-3-[[8-fluoro-6-hydroxy-7-(1,1,4-trioxo-1,2,5-thiadiazolidin-2-yl)-2-naphthyl]oxymethyl]pyrrolidin-1-yl]-2-oxo-ethyl]-4-piperidyl]-3-methyl-2-oxo-benzimidazol-1-yl]piperidine-2,6-dione] | 0.01 to 0.05 | 0.05 to 0.2

The next lines start with the values.

Row | DC50 [1] [µM] | DC50 [2] [µM] | SMILES
16 | < 0.01 | 0.01 to 0.05 | Cn1nc(C2CCC(=O)NC2=O)c2ccc(N3CCC(O)(CC(=O)Nc4ccc5c(F)c(N6CC(=O)NS6(=O)=O)c(O)cc5c4)CC3)cc21 (stereo not drawn) [Example 83, 2-[1-[3-(2,6-dioxo-3-piperidyl)-1-methyl-indazol-6-yl]-4-hydroxy-4-piperidyl]-N-[5-fluoro-7-hydroxy-6-(1,1,4-trioxo-1,2,5-thiadiazolidin-2-yl)-2-naphthyl]acetamide]
17 | 0.01 to 0.05 | 0.05 to 0.2 | Cn1c(=O)n(C2CCC(=O)NC2=O)c2ccc(C3CCN(CC(=O)N4CC[C@H](COc5ccc6cc(O)c(N7CC(=O)NS7(=O)=O)c(F)c6c5)C4)CC3)cc21 (stereo partly drawn) [Example 133, 3-[5-[1-[2-[(3S)-3-[[8-fluoro-6-hydroxy-7-(1,1,4-trioxo-1,2,5-thiadiazolidin-2-yl)-2-naphthyl]oxymethyl]pyrrolidin-1-yl]-2-oxo-ethyl]-4-piperidyl]-3-methyl-2-oxo-benzimidazol-1-yl]piperidine-2,6-dione]
18 | 0.01 to 0.05 | 0.05 to 0.2 | Cn1c(=O)n(C2CCC(=O)NC2=O)c2ccc(N3CCN(CCn4cc(-c5ccc6cc(O)c(N7CC(=O)NS7(=O)=O)c(F)c6c5)cn4)CC3)cc21 (stereo not drawn) [Example 110, 3-[5-[4-[2-[4-[8-fluoro-6-hydroxy-7-(1,1,4-trioxo-1,2,5-thiadiazolidin-2-yl)-2-naphthyl]pyrazol-1-yl]ethyl]piperazin-1-yl]-3-methyl-2-oxo-benzimidazol-1-yl]piperidine-2,6-dione]
19 | < 0.01 | 0.05 to 0.2 | Cn1c(=O)n(C2CCC(=O)NC2=O)c2ccc(C3CCN(CCNC(=O)c4ccc5c(F)c(N6CC(=O)NS6(=O)=O)c(O)cc5c4)CC3)cc21 (stereo not drawn) [Example 29, N-[2-[4-[1-(2,6-dioxo-3-piperidyl)-3-methyl-2-oxo-benzimidazol-5-yl]-1-piperidyl]ethyl]-5-fluoro-7-hydroxy-6-(1,1,4-trioxo-1,2,5-thiadiazolidin-2-yl)naphthalene-2-carboxamide]
20 | 0.01 to 0.05 | 0.05 to 0.2 | Cn1nc(C2CCC(=O)NC2=O)c2ccc(C3CCN(CC(=O)NCCOc4ccc5cc(O)c(N6CC(=O)NS6(=O)=O)c(F)c5c4)CC3)cc21 (stereo not drawn) [Example 8, 2-[4-[3-(2,6-dioxo-3-piperidyl)-1-methyl-indazol-6-yl]-1-piperidyl]-N-[2-[[8-fluoro-6-hydroxy-7-(1,1,4-trioxo-1,2,5-thiadiazolidin-2-yl)-2-naphthyl]oxy]ethyl]acetamide]
21 | 0.01 to 0.05 | 0.01 to 0.05 | Cn1c(=O)n(C2CCC(=O)NC2=O)c2ccc(C3CCN([C@H](CO)C(=O)Nc4ccc5c(F)c(N6CC(=O)NS6(=O)=O)c(O)cc5c4)CC3)cc21 (stereo partly drawn) [Example 183, (2R)—N-(6-(1,1-dioxido-4-oxo-1,2,5-thiadiazolidin-2-yl)-5-fluoro-7-hydroxynaphthalen-2-yl)-2-(4-(1-(2,6-dioxopiperidin-3-yl)-3-methyl-2-oxo-2,3-dihydro-1H-benzo[d]imidazol-5-yl)piperidin-1-yl)-3-hydroxypropanamide]
